The source of these data is ChEMBL document CHEMBL1275430, “Impact of mycophenolic acid on the functionality of human polymorphonuclear neutrophils and dendritic cells during interaction with Aspergillus fumigatus” (2008).

SMILES strings stand for the structures.

Format in all cases: functional
A short description of assay [1]: Induction of IL-2 expression in […] dendritic cell co-cultured with Aspergillus fumigatus germ tube at 10 uM after 7 days by RT-PCR.
A short description of assay [2]: Induction of TNF-alpha expression in […] dendritic cell co-cultured with Aspergillus fumigatus germ tube at 10 uM after 7 days by RT-PCR.
Assay [3] can be described thus: Induction of oxidative burst of polymorphonuclear neutrophil co-cultured with Aspergillus fumigatus germlings at 10 uM after 120 minutes relative to untreated control.
Assay [4] is described as follows: Inhibition of Aspergillus fumigatus-mediated dendritic cell maturation assessed as decreased CD86 expression at 10 uM.
Assay [5] in a line: Induction of oxidative burst of polymorphonuclear neutrophil co-cultured with Aspergillus fumigatus germlings at 10 uM after 60 minutes relative to untreated control.
A short description of assay [6]: Inhibition of Aspergillus fumigatus-mediated dendritic cell maturation assessed as decreased CD40 expression at 10 uM.
Assay [7] concerns Aspergillus fumigatus. The assay is described as follows: Effect on polymorphonuclear neutrophil killing of Aspergillus fumigatus assessed as survival rate of fungi at 10 ug/ml (reference value: 53% +/- 11%).
The nature of assay [8]: Inhibition of Aspergillus fumigatus-mediated dendritic cell maturation assessed as decreased CD1a expression at 10 uM.
Assay [9] is described as follows: Inhibition of Aspergillus fumigatus-mediated dendritic cell maturation assessed as decreased CD83 expression at 10 uM.
Assay [10] is described as follows: Inhibition of Aspergillus fumigatus-mediated dendritic cell maturation assessed as decreased CD80 expression at 10 uM.
Assay [11] deals with Aspergillus fumigatus. Briefly: Effect on polymorphonuclear neutrophil killing of Aspergillus fumigatus assessed as survival rate of fungi (reference value: 53% +/- 11%).

Regarding `COc1c(C)c2c(c(O)c1C/C=C(\C)CCC(=O)O)C(=O)OC2` [MYCOPHENOLIC ACID], the Activity in [1] was 94%; in [2], 52%. The entries for the “fold change (FC)” value in [3] and in [5] were 2.8 and 3.8, respectively. The inhibition at 10 µM is 43.8% in assay [4]; 39.3% in assay [6]; 68.8% in assay [8]; 21.1% in assay [9]; 46.7% in [10]. For the same compound, the survival at 10 µg/mL in [7] was found to be 57%.
Turning to `CCCCCCCCCCCCCC(=O)O[C@@H]1[C@@H](C)[C@@]2(O)[C@@H](C=C(CO)C[C@]3(O)C(=O)C(C)=C[C@@H]23)[C@@H]2C(C)(C)[C@]12OC(C)=O` [PHORBOL MYRISTATE ACETATE], in assay [11], the Survival came out at 26%.

Usually inhibition stands for the percentage by which the read-out fell short of the control.
